According to ChEMBL document CHEMBL1201862, “PubChem BioAssay data set” (2004):
The source made the active and inactive calls.

Columns and labels:
[1] = target: T1, Apoptotic protease-activating factor 1 (Homo sapiens, UniProt O14727); type: functional
T1 sequence (O14727 whole entry): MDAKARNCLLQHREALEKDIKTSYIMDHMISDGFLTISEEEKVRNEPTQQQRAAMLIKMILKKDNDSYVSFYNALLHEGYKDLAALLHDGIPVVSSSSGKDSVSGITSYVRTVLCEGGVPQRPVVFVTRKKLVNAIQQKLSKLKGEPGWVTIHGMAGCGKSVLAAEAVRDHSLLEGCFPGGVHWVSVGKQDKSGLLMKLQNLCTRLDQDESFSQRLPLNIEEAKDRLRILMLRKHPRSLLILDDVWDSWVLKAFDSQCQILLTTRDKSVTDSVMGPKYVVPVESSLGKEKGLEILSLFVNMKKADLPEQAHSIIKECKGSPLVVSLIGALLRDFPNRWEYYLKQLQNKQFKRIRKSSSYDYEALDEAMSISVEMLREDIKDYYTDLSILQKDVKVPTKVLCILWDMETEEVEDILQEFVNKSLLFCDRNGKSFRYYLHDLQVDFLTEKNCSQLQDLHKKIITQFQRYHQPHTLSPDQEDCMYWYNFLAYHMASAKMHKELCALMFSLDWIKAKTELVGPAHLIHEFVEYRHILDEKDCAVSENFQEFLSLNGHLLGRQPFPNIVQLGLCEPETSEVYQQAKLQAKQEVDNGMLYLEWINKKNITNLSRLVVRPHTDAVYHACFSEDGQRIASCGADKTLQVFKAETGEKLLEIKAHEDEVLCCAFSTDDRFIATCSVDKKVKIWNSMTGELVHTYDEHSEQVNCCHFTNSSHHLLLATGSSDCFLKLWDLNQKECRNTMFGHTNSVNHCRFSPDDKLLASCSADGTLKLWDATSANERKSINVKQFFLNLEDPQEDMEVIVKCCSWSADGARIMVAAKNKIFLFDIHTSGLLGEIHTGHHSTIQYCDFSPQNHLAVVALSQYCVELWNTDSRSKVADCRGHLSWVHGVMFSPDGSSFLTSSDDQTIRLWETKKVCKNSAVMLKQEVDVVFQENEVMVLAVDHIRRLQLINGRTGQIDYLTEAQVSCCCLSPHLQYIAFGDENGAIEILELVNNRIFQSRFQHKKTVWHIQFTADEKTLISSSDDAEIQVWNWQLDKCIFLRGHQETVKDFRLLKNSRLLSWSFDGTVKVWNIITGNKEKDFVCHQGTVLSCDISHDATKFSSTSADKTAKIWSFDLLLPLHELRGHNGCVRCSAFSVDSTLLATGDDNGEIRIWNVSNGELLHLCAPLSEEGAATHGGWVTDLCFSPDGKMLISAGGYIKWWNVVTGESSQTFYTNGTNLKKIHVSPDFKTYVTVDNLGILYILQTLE

[2] = target: T2, Cytochrome P450 1A2 (Homo sapiens, UniProt P05177);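 further: PubChem cytochrome P450 panel assay, CYP1A2 panel member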
T2 sequence (P05177 whole entry): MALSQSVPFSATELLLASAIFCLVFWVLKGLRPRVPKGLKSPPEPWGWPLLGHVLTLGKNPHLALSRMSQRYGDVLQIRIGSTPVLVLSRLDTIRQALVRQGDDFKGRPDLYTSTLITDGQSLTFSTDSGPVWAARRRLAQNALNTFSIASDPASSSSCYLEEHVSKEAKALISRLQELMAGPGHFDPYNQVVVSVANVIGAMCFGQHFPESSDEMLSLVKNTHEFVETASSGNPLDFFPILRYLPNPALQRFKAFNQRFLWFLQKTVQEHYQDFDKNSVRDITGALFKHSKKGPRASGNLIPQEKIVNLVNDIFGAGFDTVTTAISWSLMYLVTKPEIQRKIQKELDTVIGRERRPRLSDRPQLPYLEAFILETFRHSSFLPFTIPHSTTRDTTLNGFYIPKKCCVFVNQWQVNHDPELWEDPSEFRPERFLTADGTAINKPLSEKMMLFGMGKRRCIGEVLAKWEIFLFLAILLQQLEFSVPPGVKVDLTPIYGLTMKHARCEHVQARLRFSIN

[3] = target: Cytochrome P450 3A4 (Homo sapiens, UniProt P08684);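 further: CYP3A4 tested as one member of a cytochrome P450 panel screen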
Sequence of Cytochrome P450 3A4 (P08684 whole entry): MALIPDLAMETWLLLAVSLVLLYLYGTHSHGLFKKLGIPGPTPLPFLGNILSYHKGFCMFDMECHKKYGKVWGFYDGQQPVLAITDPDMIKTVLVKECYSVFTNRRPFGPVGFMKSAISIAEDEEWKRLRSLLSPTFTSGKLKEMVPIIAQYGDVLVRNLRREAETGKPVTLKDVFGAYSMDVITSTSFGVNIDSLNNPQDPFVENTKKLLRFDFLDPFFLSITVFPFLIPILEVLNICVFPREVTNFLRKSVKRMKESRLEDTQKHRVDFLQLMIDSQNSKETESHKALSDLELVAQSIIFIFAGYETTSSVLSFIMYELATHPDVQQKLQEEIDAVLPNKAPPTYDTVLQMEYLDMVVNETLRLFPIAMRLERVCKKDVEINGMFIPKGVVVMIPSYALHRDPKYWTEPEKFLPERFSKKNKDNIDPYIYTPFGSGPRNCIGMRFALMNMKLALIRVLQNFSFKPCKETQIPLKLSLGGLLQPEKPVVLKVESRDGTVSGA

[4] = target: Estrogen receptor beta (Homo sapiens, UniProt Q92731);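 further: recombinant ER-beta bound to coactivator SRC1 peptide in presence of estradiol agonist; inhibitors block coactivator peptide binding and lower the FRET signal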
Sequence of Estrogen receptor beta (Q92731 whole entry): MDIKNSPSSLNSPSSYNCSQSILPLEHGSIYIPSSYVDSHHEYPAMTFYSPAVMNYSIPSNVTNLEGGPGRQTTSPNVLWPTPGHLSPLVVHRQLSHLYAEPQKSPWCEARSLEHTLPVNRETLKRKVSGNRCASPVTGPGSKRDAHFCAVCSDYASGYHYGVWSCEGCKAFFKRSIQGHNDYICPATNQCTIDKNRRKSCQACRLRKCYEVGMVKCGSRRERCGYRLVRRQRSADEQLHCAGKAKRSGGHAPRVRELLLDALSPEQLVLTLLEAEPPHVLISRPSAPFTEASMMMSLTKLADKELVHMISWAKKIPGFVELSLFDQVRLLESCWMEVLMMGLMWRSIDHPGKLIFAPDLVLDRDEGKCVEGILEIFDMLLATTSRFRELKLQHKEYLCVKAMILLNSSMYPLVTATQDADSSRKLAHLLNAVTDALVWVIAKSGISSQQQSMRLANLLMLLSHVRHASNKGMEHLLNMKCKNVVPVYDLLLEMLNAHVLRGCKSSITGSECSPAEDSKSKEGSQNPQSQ

[5] = HEK-293T cell viability reduction – luminescence, B-cell screen hits, cytotoxicity control for BCR NF-kB inhibitor project, dose response (AID 489021); type: functional, cell-based;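 further: HEK-293T cells carrying an NF-kB luciferase reporter; cells exposed to compound for about 14 hours before viability readout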
[6] = system: H4; assay: Luminescence Cell-Based Dose Response HTS to Identify Activators of 5'UTR Stem-Loop Driven Prion Protein mRNA Translation in H4 Neuroglioblastoma Cells. [Related pubchem assays: 1829 (Project Summary), 1814 (Primary HTS)]; type: functional; conditions: Homo sapiens
[7] = Luminescence Cell-Based Dose Response HTS to Identify Activators of Luciferase Translation or Activity in H4 […] Cells. [Related pubchem assays: 1829 (Project Summary), 1814 (Primary HTS)]; type: functional
[8] = target: Induced myeloid leukemia cell differentiation protein Mcl-1 (Homo sapiens, UniProt Q07820); type: functional
Sequence of Induced myeloid leukemia cell differentiation protein Mcl-1 (Q07820 whole entry): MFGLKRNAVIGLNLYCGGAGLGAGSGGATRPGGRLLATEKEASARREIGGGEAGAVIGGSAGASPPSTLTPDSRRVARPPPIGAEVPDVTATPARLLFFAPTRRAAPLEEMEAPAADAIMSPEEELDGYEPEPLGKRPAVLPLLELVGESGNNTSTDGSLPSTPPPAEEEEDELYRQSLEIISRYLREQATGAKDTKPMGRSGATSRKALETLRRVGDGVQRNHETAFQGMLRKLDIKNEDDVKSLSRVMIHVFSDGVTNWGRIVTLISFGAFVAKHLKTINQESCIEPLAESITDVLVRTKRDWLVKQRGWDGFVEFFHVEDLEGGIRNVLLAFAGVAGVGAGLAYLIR

[9] = Luminescence Cell-Based Dose Confirmation HTS to Identify Activators of 5'UTR Stem-Loop Driven Alpha-Synuclein mRNA Translation in H4 Neuroglioblastoma Cells. [Related pubchem assays: 1829 (Project Summary), 1814 (Primary HTS)]; type: functional
[10] = Trypanosoma cruzi growth suppression in host cells – NIH3T3 host cells, beta-gal luminescence, confirmation (AID 2044); type: functional, cell-based;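 further: intracellular parasites grown in NIH/3T3 mouse fibroblasts as host cells; luminescent beta-galactosidase reporter signal from transgenic T. cruzi replicating inside host cells; inhibitors lower the luminescence signal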
[11] = NIH3T3 cell viability loss – ATP luminescence, mouse fibroblasts, counter-screen, dose response (AID 2010); type: functional, cell-based;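 further: cells exposed to compound for about 90 hours before reading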
[12] = target: T3, Streptokinase A (Streptococcus pyogenes serotype M1, UniProt P10520); assay: viability-normalized secreted streptokinase activity reduction – plasminogen activation absorbance, OD405, dose response (AID 1914); type: functional, Streptococcus pyogenes M1 GAS;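 further: secreted streptokinase activity via plasminogen activation per viability signal from cell pellet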
T3 sequence (P10520 whole entry): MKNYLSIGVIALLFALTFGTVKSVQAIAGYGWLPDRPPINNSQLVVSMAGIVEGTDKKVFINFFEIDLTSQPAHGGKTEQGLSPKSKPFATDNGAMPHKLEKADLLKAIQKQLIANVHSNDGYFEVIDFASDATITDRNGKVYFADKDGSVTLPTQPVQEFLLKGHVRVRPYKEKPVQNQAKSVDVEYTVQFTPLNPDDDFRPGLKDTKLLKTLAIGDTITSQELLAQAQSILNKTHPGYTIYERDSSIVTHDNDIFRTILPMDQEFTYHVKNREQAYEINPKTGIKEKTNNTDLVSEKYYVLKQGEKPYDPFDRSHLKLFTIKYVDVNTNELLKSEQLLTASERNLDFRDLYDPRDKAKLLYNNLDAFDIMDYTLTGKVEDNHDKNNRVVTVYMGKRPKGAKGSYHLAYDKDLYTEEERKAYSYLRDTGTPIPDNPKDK

[13] = system: Streptococcus; assay: GAS UMAA2166 growth inhibition – luminescence, BacTiterGlo, counter-screen for streptokinase expression inhibitor project, dose response (AID 1915); type: functional, organism-based;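 further: potency for reduction of bacterial viability or growth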
[14] = system: Streptococcus sp. 'group A'; assay: Streptococcus pyogenes SK(-)GAS viability under kanamycin – luminescence, BacTiterGlo, confirmation, counter-screen for streptokinase expression inhibitor project, dose response (AID 1900); type: functional, organism-based
[15] = target: FAD-linked sulfhydryl oxidase ALR (Homo sapiens, UniProt P55789); assay: ALR-catalysed DTT oxidation blockers – biochemical, H2O2 detection, luminescence, cherry-pick, dose response (AID 493248)
Sequence of FAD-linked sulfhydryl oxidase ALR (P55789 whole entry): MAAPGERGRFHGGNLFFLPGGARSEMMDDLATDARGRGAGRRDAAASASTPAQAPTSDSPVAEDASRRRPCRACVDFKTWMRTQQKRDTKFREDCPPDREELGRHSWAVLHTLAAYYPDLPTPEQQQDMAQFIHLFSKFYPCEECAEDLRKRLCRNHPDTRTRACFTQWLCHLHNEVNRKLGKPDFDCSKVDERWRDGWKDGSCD

[16] = target: T4, Histone-lysine N-methyltransferase NSD2 (Homo sapiens, UniProt O96028); type: biochemical
T4 sequence (O96028 whole entry): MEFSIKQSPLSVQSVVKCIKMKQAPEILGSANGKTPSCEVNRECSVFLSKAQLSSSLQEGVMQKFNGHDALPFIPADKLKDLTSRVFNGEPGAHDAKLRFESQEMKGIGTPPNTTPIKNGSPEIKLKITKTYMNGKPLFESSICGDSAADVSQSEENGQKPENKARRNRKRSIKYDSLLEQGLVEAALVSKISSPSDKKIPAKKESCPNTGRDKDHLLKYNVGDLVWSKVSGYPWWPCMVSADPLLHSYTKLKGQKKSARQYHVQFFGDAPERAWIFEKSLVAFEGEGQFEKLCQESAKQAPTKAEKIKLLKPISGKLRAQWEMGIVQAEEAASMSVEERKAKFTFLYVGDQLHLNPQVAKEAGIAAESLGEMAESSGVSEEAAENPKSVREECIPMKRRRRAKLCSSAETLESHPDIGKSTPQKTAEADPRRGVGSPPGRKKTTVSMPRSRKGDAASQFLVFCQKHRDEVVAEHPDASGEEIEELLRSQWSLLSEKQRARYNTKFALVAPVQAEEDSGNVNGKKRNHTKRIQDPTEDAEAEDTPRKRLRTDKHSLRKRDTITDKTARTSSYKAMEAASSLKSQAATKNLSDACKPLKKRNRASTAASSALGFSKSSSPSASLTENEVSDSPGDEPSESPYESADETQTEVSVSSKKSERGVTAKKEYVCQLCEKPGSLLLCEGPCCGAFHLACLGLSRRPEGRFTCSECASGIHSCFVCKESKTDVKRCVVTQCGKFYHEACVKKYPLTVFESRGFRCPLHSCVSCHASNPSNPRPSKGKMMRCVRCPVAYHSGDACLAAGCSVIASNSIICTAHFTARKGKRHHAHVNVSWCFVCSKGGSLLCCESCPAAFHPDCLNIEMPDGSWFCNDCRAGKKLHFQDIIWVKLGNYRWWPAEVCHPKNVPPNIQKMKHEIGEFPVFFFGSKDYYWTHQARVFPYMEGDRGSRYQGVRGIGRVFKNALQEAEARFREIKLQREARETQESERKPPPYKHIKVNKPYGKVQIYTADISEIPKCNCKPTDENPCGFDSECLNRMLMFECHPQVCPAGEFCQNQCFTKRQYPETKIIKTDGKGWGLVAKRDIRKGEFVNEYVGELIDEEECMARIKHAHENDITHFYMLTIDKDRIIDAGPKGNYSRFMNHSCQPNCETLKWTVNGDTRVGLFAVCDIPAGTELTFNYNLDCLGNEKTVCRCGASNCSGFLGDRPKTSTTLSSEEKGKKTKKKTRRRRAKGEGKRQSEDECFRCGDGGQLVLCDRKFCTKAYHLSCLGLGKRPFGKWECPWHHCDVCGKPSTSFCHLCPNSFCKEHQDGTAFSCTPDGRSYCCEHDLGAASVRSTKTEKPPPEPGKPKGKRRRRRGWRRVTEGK

COC(=O)c1ccccc1-c1ccc(/C=C2\C(=O)N(c3ccccc3)N=C2c2ccccc2)o1
IC50 [1]: 28.9 µM (active)
AC50 [2]: 5.01 µM (inconclusive)
AC50 [3]: 2.82 µM (inconclusive)

CC(=O)Nc1ccc(N2CCN(C(C)=O)CC2)cc1
IC50 [4]: > 50 µM (not active)

CCN(CC(=O)Nc1c(F)cccc1F)C(=O)c1cc(S(=O)(=O)N2CCOCC2)ccc1N1CCCC1
IC50 [5]: > 80 µM (inactive)

Cc1ccc2nc(-c3ccc(NC(=O)CN4CCN(c5ccccn5)CC4)cc3)sc2c1
EC50 [6]: 44.3 µM (active)
EC50 [7]: 9.19 µM (active)

Brc1ccc(C2Nc3cccc4cccc(c34)N2)s1
IC50 [8]: 9.46 µM (active)

Nc1nc(CSc2ncccn2)nc(Nc2ccccc2)n1
EC50 [9]: 3.07 µM (active)
EC50 [7]: 0.504 µM (active)

COC(=O)c1ccc(CC(=O)c2c(C)cc(O)cc2O)o1
IC50 [4]: 15 µM (active)

COc1ccc(/C=C/c2ccccc2)cc1[C@H]1[C@H]2C=CC[C@@H](C)[C@@H]2C(=O)N1Cc1ccccc1
IC50 [5]: > 80 µM (inactive)

CCCCCc1ccc(OCCC[n+]2ccccc2)c(CCCCC)c1
IC50 [1]: 84.9 µM (active)
EC50 [10]: 0.122 µM (active)
EC50 [11]: > 60 µM (not active)

CC(=O)Oc1ccc2occ(-c3ccccc3)c2c1
EC50 [6]: 14 µM (active)
EC50 [9]: 13.8 µM (active)
EC50 [7]: 16.7 µM (active)

O=C(COc1ccccc1Cl)c1ccc2c(c1)CCCC2
EC50 [6]: 10 µM (active)
EC50 [7]: 16.7 µM (active)

CCOC(=O)C(=O)N(Nc1ccc(C)cc1)c1ccc(C)cc1
EC50 [9]: 7.04 µM (active)
EC50 [7]: 82.6 µM (active)

CC1CCN(c2ccc(-c3ccc(NC(=O)c4ccco4)cc3)nn2)CC1
EC50 [6]: 120 µM (active)
EC50 [12]: > 150 µM (not active)
EC50 [9]: 18.6 µM (active)
EC50 [7]: > 120 µM (not active)
EC50 [13]: > 150 µM (not active)
EC50 [14]: > 150 µM (not active)

COc1ccc(S(=O)(=O)N2CCN(CC(=O)c3ccc(O)c(O)c3)CC2)cc1
AC50 [15]: 2.33 µM (active)
AC50 [16]: 5.33 µM (active)

COc1ccc(C2=NCc3nnc(C)n3-c3ccc(Cl)cc32)cc1Cl
IC50 [5]: > 80 µM (inactive)

COc1ccc(C(=O)N/N=C/c2sc(N3CCOCC3)nc2-c2ccccc2)cc1OC
IC50 [5]: 63.1 µM (inactive)

COc1cc(/C=N/NC(=O)c2cc(-c3ccco3)nc3ccccc23)cc(OC)c1O
AC50 [15]: 0.13 µM (active)
IC50 [8]: 8.35 µM (active)

CCCc1cc(=O)oc2c3c(c4c(c12)OC(C)(C)C=C4)O[C@H](C)[C@@H](C)[C@@H]3O [CALANOLIDE A]
IC50 [1]: 20.3 µM (active)
EC50 [10]: 2.28 µM (active)
EC50 [11]: 4.87 µM (active)
